The results in this text go back to ChEMBL document CHEMBL1131144, “N-Substituted 9beta-methyl-5-(3-hydroxyphenyl)morphans are opioid receptor pure antagonists” (J Med Chem, 1998).

Assay [1] addresses T1, Kappa-type opioid receptor (Cavia porcellus, UniProt P41144). Briefly: Binding activity against Opioid receptor kappa 1 using [3H]U-69593 as radioligand in guinea pig membranes. Format: cell membranes.
Assay [2] concerns the target Mu-type opioid receptor (Cavia porcellus, UniProt P97266). Kind of assay: Inhibition of [35S]GTP-gamma-S, binding in guinea pig caudate stimulated by DAMGO (Opioid receptor mu 1). Format: functional. A general note: Binding of GTPγS marks nucleotide exchange on a G protein.
Assay [3] addresses Delta-type opioid receptor (Rattus norvegicus, UniProt P33533). Kind of assay: Binding activity against Opioid receptor delta 1 using [3H]DADLE as radioligand in rat brain membranes. In kind it is cell membranes.
Assay [4] concerns the target Mu-type opioid receptor (Rattus norvegicus, UniProt P33535). Kind of assay: Binding activity against Opioid receptor mu 1 using [3H]DAMGO as radioligand in rat brain membranes. Format: cell membranes.
Assay [5] deals with T1, Kappa-type opioid receptor. Kind of assay: Inhibition of [35S]GTP-gamma-S, binding in guinea pig caudate stimulated by U69,593 in Opioid receptor kappa 1. In kind it is functional.
Assay [6] addresses Kappa-type opioid receptor (Homo sapiens, UniProt P41145). Briefly: Binding affinity against Opioid receptor kappa 1 using [3H]ethylketocyclazocine as radioligand.
Assay [7] addresses Mu-type opioid receptor (Homo sapiens, UniProt P35372). Kind of assay: Binding affinity against Opioid receptor mu 1 using [3H]naloxone as radioligand.
Assay [8] addresses T1, Kappa-type opioid receptor. Briefly: Binding activity against kOpioid receptor kappa 1 using [3H]U-69593 as radioligand in guinea pig membranes. Format: cell membranes.

T1 sequence (P41144 whole entry): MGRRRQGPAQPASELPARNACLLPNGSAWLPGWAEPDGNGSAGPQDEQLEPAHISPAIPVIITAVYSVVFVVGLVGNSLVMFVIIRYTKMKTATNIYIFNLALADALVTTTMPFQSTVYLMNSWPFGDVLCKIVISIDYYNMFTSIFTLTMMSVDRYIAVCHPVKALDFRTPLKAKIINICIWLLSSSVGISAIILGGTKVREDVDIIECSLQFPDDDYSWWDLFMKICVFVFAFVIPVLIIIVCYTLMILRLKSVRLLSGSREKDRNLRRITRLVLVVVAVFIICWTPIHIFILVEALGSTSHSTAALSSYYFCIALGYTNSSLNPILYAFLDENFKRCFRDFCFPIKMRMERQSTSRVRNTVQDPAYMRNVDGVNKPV
Mu-type opioid receptor (Rattus norvegicus, UniProt P33535), sequence (P33535 whole entry): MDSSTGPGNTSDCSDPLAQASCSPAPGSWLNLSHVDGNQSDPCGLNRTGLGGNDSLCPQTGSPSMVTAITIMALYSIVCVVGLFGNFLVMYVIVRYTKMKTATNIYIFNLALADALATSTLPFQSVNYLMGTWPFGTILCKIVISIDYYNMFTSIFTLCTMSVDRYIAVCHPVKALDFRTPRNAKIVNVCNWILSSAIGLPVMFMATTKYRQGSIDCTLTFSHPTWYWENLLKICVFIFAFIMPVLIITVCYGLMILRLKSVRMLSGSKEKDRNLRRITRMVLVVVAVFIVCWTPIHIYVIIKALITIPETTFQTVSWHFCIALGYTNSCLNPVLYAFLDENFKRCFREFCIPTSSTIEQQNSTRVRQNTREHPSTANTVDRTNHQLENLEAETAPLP
Delta-type opioid receptor, sequence (P33533 whole entry): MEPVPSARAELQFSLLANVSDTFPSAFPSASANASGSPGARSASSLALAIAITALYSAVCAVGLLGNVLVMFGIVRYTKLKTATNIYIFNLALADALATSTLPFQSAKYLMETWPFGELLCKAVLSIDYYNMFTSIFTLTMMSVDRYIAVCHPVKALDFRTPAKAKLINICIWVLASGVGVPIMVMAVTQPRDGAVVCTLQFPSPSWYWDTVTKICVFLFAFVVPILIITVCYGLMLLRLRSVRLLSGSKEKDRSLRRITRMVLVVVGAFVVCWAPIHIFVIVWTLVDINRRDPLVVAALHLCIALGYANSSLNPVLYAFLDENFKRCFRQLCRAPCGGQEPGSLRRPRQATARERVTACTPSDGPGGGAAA
Mu-type opioid receptor (Cavia porcellus, UniProt P97266), sequence (P97266 whole entry): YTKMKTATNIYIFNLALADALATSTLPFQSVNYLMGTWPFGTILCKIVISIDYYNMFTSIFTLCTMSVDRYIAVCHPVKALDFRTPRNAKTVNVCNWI
Kappa-type opioid receptor (Homo sapiens, UniProt P41145), sequence (P41145 whole entry): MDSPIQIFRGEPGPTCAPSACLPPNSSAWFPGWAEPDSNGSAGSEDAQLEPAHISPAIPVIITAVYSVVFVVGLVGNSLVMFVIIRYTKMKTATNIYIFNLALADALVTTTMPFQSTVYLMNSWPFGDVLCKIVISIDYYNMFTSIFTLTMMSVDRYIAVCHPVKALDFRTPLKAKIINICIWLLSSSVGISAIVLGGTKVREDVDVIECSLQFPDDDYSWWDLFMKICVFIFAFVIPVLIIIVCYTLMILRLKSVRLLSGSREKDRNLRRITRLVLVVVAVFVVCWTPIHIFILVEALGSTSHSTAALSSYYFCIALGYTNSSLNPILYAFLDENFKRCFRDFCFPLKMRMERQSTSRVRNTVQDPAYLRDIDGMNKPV
Mu-type opioid receptor (Homo sapiens, UniProt P35372), sequence (P35372 whole entry): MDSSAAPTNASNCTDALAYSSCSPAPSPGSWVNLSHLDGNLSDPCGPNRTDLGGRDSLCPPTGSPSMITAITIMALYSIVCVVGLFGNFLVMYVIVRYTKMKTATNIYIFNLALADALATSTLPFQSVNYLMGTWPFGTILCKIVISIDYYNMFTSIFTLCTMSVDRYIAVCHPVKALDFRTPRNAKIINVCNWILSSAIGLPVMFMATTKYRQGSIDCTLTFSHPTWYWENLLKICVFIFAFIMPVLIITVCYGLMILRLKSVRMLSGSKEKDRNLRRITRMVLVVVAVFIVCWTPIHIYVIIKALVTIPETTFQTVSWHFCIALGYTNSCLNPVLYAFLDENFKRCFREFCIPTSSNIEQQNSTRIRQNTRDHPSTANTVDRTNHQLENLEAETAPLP

As to `C[C@H]1C2CCCC1(c1cccc(O)c1)CCN2C` (some centres not stated), the Ki was 816 nM in assay [1]; 21.3 nM in assay [2]; above 10000 nM in assay [3]; 166 nM in assay [4]; 105 nM in assay [5].
Take `C[C@H]1CN(C)CC[C@@]1(C)c1cccc(O)c1`: the results for the Ki in assay [6] and in assay [7] were 833 nM and 80 nM, respectively.
For `C[C@H]1C2CCCC1(c1cccc(O)c1)CCN2CCc1ccccc1` (some centres not stated), the inhibition constant (Ki) in assay [8] was found to be 14.5 nM; in assay [2] it was 0.338 nM; in assay [3] it was 272 nM; in assay [4] it was 3.11 nM; in assay [5], 1.34 nM.

Usually Ki stands for the dissociation constant of the complex between target and ligand, obtained from inhibition or displacement.
